Measurements from publication PMC11584562 (The Journal of Biological Chemistry, 2024).
Each block holds one molecule with its values, some of them ahead of it.

How the values were obtained:
[1] = biological target: T1, CnAcs1 (Cryptococcus neoformans, UniProt J9VFT1); assay: EnzChek pyrophosphate-release coupled assay; assay type: biochemical
T1 sequence (J9VFT1 1-680): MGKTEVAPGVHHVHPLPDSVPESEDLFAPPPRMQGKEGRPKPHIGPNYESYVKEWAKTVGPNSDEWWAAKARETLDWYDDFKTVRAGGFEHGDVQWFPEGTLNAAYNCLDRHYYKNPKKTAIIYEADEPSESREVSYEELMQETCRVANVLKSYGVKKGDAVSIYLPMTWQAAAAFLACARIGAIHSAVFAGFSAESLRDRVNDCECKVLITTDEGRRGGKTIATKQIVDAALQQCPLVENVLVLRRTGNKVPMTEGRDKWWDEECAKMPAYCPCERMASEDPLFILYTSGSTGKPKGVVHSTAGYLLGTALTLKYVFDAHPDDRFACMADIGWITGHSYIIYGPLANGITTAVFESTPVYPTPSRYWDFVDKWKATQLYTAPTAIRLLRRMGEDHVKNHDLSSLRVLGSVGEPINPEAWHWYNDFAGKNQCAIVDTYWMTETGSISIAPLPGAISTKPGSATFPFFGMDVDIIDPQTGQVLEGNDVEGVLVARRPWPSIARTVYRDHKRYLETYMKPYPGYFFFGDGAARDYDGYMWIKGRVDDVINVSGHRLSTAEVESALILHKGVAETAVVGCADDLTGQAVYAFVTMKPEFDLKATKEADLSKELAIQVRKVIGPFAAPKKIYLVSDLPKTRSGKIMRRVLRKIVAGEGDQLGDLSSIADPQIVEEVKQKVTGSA

[2] = biological target: T2, LiAcs1 (Leishmania infantum, UniProt A4I093); assay: EnzChek pyrophosphate-release coupled assay; assay type: biochemical
T2 sequence (A4I093 1-705): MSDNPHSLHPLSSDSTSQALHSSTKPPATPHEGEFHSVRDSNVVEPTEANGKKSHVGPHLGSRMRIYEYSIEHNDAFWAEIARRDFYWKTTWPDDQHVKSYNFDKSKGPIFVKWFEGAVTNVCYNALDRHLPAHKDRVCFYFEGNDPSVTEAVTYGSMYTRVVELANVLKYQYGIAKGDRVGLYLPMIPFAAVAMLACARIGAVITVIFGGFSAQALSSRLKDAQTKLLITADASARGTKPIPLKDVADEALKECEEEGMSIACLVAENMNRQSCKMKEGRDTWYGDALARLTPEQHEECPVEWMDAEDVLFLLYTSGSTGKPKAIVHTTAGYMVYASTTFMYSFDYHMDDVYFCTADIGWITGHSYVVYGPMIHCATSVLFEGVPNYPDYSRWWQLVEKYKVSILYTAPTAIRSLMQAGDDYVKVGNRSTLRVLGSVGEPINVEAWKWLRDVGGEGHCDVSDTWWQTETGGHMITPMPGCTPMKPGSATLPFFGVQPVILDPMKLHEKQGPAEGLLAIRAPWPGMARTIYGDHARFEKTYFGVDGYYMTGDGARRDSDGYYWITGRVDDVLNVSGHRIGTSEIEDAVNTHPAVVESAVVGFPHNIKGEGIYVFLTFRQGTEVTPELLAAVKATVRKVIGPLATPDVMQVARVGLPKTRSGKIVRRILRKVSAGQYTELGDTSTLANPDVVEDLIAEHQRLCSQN

[3] = biological target: T3, CnKbc1 (Cryptococcus neoformans, UniProt J9VT24); assay: biochemical
T3 sequence (J9VT24 1-696): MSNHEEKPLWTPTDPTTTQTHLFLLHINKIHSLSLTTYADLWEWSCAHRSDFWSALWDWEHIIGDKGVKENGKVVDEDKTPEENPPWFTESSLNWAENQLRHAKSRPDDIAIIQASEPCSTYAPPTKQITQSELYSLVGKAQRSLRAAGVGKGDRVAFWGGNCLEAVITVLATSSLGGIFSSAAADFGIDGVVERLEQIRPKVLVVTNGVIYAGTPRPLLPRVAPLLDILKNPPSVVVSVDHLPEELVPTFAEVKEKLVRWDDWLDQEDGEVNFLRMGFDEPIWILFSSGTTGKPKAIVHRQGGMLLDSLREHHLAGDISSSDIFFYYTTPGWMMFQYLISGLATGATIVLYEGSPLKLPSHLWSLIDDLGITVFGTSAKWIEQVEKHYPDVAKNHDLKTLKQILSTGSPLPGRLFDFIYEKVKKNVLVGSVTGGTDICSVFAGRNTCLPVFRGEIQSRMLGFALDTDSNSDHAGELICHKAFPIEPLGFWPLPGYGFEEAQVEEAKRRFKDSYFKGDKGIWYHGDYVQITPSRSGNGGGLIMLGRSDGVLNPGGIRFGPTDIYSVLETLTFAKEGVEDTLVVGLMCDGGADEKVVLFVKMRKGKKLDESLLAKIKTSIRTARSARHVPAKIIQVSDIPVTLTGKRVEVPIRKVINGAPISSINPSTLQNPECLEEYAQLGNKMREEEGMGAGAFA

[4] = biological target: T3, CnKbc1; assay: biochemical; remark: listed apart in the source
[5] = biological target: T1, CnAcs1; assay: biochemical
[6] = biological target: T2, LiAcs1; assay: biochemical
[7] = biological target: T1, CnAcs1; assay: biochemical; remark: listed apart in the source
[8] = biological target: T3, CnKbc1; assay: EnzChek pyrophosphate-release coupled assay; assay type: biochemical
[9] = biological target: T2, LiAcs1; assay: biochemical; remark: listed apart in the source
[10] = substrate: CC(=O)O; assay: EnzChek pyrophosphate-release coupled assay; assay type: biochemical, Leishmania infantum; conditions: ATP and CoA as co-substrates, 4 mM MgCl2, 37 °C
[11] = substrate: CC(=O)CC(=O)O; assay: EnzChek pyrophosphate-release coupled assay; assay type: biochemical, Leishmania infantum; conditions: ATP and CoA as co-substrates, 4 mM MgCl2, 37 °C

IC50 [1]: 8.7 µM | IC50 [2]: 2.2 µM | IC50 [3]: > 100 µM
Molecule: Nc1ncnc2c1ncn2[C@@H]1O[C@H](COP(=O)(O)OC2CC2)[C@@H](O)[C@H]1O [iii, Cyclopropyl-AMP]

IC50 [1]: 55.1 µM | IC50 [2]: 10.2 µM | IC50 [3]: > 100 µM
Molecule: C#CCOP(=O)(O)OC[C@H]1O[C@@H](n2cnc3c(N)ncnc32)[C@H](O)[C@@H]1O [vii, Propargyl-AMP]

IC50 [1]: 25.3 µM | IC50 [2]: 6.7 µM | IC50 [3]: > 100 µM
Molecule: CC(C)OP(=O)(O)OC[C@H]1O[C@@H](n2cnc3c(N)ncnc32)[C@H](O)[C@@H]1O [v, Isopropyl-AMP]

IC50 [1]: 21.1 µM | IC50 [2]: 13.5 µM | IC50 [3]: > 100 µM
Molecule: CCCOP(=O)(O)OC[C@H]1O[C@@H](n2cnc3c(N)ncnc32)[C@H](O)[C@@H]1O [iv, Propyl-AMP]

Molecule: Nc1ncnc2c1ncn2[C@@H]1O[C@H](COP(=O)(O)OC2CCCC2)[C@@H](O)[C@H]1O [x, Cyclopentyl-AMP]
IC50 [4]: > 100 µM | IC50 [5]: > 100 µM | IC50 [6]: > 100 µM

Molecule: COP(=O)(O)OC[C@H]1O[C@@H](n2cnc3c(N)ncnc32)[C@H](O)[C@@H]1O [i, Methyl-AMP]
IC50 [7]: > 100 µM | IC50 [2]: 69.9 µM | IC50 [3]: > 100 µM

Molecule: CCOP(=O)(O)OC[C@H]1O[C@@H](n2cnc3c(N)ncnc32)[C@H](O)[C@@H]1O [ii, Ethyl-AMP]
IC50 [1]: 8 µM | IC50 [8]: > 100 µM | IC50 [2]: 2 µM

IC50 [1]: 41 µM | IC50 [2]: 12.5 µM | IC50 [3]: > 100 µM
Molecule: C=CCOP(=O)(O)OC[C@H]1O[C@@H](n2cnc3c(N)ncnc32)[C@H](O)[C@@H]1O [vi, Allyl-AMP]

IC50 [7]: > 100 µM | IC50 [8]: 7.8 µM | IC50 [9]: > 100 µM
Molecule: CCCCOP(=O)(O)OC[C@H]1O[C@@H](n2cnc3c(N)ncnc32)[C@H](O)[C@@H]1O [viii, Butyl-AMP]

B1: LiAcs1 (Leishmania infantum) (protein)
chain: T2 sequence (A4I093 1-705)
Km [10]: 61 (95% CI 45, 83) μM | Km [11]: 88 (95% CI 71, 110) μM
